Among the test systems are A549; BT-549; HOP-62; HOP-92; HT-29; IGROV-1; K562; LOX IMVI; Malme-3M; NCI-H460; OVCAR-8; PC-3; RPMI-8226; SK-MEL-2; SK-OV-3; SNB-19; SW-620; T47D; U-251; MDA-N.
Assay in all cases: inhibition of tumour cell growth, NCI panel, 48 h

We go through eleven molecules from ChEMBL document CHEMBL1201862, “PubChem BioAssay data set” (2004).

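Where inhibition never reached the appropriate level, the endpoint shown equals the highest concentration tested. Otherwise, values were interpolated linearly from a five-concentration, 48-hour dose response in 96-well plates. Abbreviation: GI50, concentration required for 50% inhibition of growth.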 Activity calls are given as the source filed them. Cut-off read from the data, not from the text of the source: active = GI50 up to about 1.1 µM and inactive = higher. Where a SMILES comes first, the peptide text is derived from it. [ ]: non-standard residue; d: D form. Phe(4-NO2) = N[CH](Cc1ccc([N+](=O)[O-])cc1)C(=O)O Where only a bound is given, the exact number is not on record here.

For `CSC1SCC2C(=O)N(C)C3(CC3C)C(=O)OCC(NC(=O)c3nc4ccccc4cc3O)C(=O)NC(C)C(=O)N(C)C1C(=O)N(C)C1(CC1C)C(=O)OCC(NC(=O)c1nc3ccccc3cc1O)C(=O)NC(C)C(=O)N2C` (configuration not stated), the GI50 with A549 is < 0.0001 µM (active); in the assay on BT-549, < 0.01 µM (active); in the assay with HOP-62 it was < 0.0001 µM (active); in the assay on HOP-92, < 0.0001 µM (active); with HT-29, < 0.0001 µM (active); with IGROV-1, < 0.0001 µM (active). Moreover, the GI50 in the assay with K562, in the assay on LOX IMVI, in the assay with Malme-3M, with NCI-H460, in the assay with OVCAR-8 and in the assay on PC-3 was < 0.0001 µM (active) each time. Also, the GI50 in the assay with RPMI-8226, with SK-MEL-2, in the assay on SK-OV-3, with SNB-19, in the assay on SW-620 and in the assay with T47D was < 0.0001 µM (active) throughout. For the same molecule, the GI50 in the assay on U-251 was < 0.0001 µM (active).
For the molecule `CC(NC(=O)C(Cc1ccc([N+](=O)[O-])cc1)NC(=O)C(N)CCCCN)C(=O)NC(Cc1ccc([N+](=O)[O-])cc1)C(N)=O` (configuration not stated) (H-K[Phe(4-NO2)]A[Phe(4-NO2)]-NH2; configuration not given here), the GI50 in the assay on A549 was 23 µM (inactive); in the assay on BT-549, 27.6 µM (inactive); in the assay with HOP-62 it was 11.7 µM (inactive); with HOP-92 it was 28.3 µM (inactive); with HT-29, 20.4 µM (inactive); in the assay on IGROV-1 it was 26.2 µM (inactive). In addition, the GI50 in the assay with K562 was > 20.5 µM (inactive); in the assay on LOX IMVI it was > 100 µM (inactive); in the assay on Malme-3M, 50.8 µM (inactive); in the assay with NCI-H460 it was 20.6 µM (inactive); with OVCAR-8 it was 23.9 µM (inactive); in the assay with PC-3 it was 32.5 µM (inactive). The GI50 was 29.2 µM (inactive) in the assay with RPMI-8226; 51.5 µM (inactive) with SK-MEL-2; > 100 µM (inactive) in the assay on SK-OV-3; > 85.3 µM (inactive) with SNB-19; 27.2 µM (inactive) with SW-620; > 49.1 µM (inactive) in the assay with T47D. In addition, the GI50 in the assay on U-251 was > 42.2 µM (inactive).
With `COc1c2c3c4c(c(OC)c(=O)c5c(O)cc(OC)c(c6c(OC)cc(O)c(c1=O)c63)c54)C(C(C)O)C2C(C)=O` (configuration not stated), the GI50 in the assay on A549 was 0.353 µM (active); in the assay with HOP-62, 0.177 µM (active); with HOP-92, 0.225 µM (active); in the assay on HT-29, 0.47 µM (active); in the assay on IGROV-1, 0.445 µM (active); in the assay on K562, 0.234 µM (active). Also, the GI50 in the assay with LOX IMVI is 0.244 µM (active); with MDA-N, 0.282 µM (active); in the assay on Malme-3M, 0.448 µM (active); with NCI-H460 it was 0.226 µM (active); with OVCAR-8, 0.321 µM (active); in the assay with PC-3 it was 0.26 µM (active). For the same molecule, the GI50 with RPMI-8226 is 0.513 µM (active); with SK-MEL-2, 0.738 µM (active); in the assay with SK-OV-3, 0.826 µM (active); with SNB-19, 0.264 µM (active); in the assay with SW-620, 0.395 µM (active); in the assay with T47D, 0.454 µM (active). Besides, the GI50 in the assay on U-251 is 0.299 µM (active).
With `NC(=S)N/N=C/C1NCCC2CCCCC21` (configuration not stated), the GI50 in the assay with A549 is 0.262 µM (active); in the assay on BT-549, 0.834 µM (active); with HOP-62, 0.0938 µM (active); with HOP-92, 0.0641 µM (active); with HT-29 it was 2.86 µM (inactive); with IGROV-1, 0.689 µM (active). The GI50 was 0.617 µM (active) in the assay on K562; 0.221 µM (active) in the assay on LOX IMVI; 0.254 µM (active) with Malme-3M; 0.231 µM (active) with NCI-H460; 0.149 µM (active) with OVCAR-8; 0.363 µM (active) with PC-3. The GI50 is 0.279 µM (active) in the assay with RPMI-8226; 0.824 µM (active) with SK-MEL-2; 0.37 µM (active) in the assay on SK-OV-3; 0.35 µM (active) with SNB-19; 0.568 µM (active) in the assay with SW-620; 0.282 µM (active) with T47D. For the same molecule, the GI50 with U-251 is 0.136 µM (active).
With `N#CSC/C(Cl)=C/Cl.N#CSC/C(Cl)=C\Cl`, the GI50 with A549, in the assay on HOP-62, with HOP-92, in the assay with HT-29, in the assay on IGROV-1 and in the assay on K562 was > 100 µM (inactive) each time. For the same molecule, the GI50 in the assay with LOX IMVI was 20.4 µM (inactive); in the assay on MDA-N, > 100 µM (inactive); in the assay on Malme-3M, > 100 µM (inactive); in the assay with NCI-H460, > 100 µM (inactive); with OVCAR-8 it was > 100 µM (inactive); in the assay with PC-3, > 100 µM (inactive). In addition, the GI50 with RPMI-8226 is 92.3 µM (inactive); with SK-MEL-2, > 100 µM (inactive); with SK-OV-3, > 100 µM (inactive); with SNB-19, > 100 µM (inactive); in the assay on SW-620 it was > 100 µM (inactive); in the assay on T47D, > 100 µM (inactive). Besides, the GI50 in the assay with U-251 was > 100 µM (inactive).
`Nc1ccccc1-c1noc(=O)[nH]1`: the GI50 in the assay with A549 was > 100 µM (inactive); with BT-549 it was > 100 µM (inactive); with HOP-62 it was > 100 µM (inactive); with HOP-92 it was > 100 µM (inactive); with HT-29 it was > 100 µM (inactive); in the assay with IGROV-1, 60.4 µM (inactive). The GI50 in the assay on K562, in the assay with LOX IMVI, with OVCAR-8, with PC-3, in the assay on RPMI-8226 and with SK-MEL-2 was > 100 µM (inactive) each time. Besides, the GI50 in the assay on SK-OV-3, with SNB-19, with SW-620, in the assay with T47D and in the assay on U-251 was > 100 µM (inactive) in each case.
Turning to `Nc1nc(Cl)c2ncn(Cc3cccc(CCl)c3)c2n1`, the GI50 in the assay with A549 is 13.2 µM (inactive); in the assay on BT-549 it was 4.09 µM (inactive); in the assay on HOP-62 it was 2.84 µM (inactive); with HOP-92 it was 1.64 µM (inactive); with HT-29, 3.87 µM (inactive); in the assay with IGROV-1, 3.31 µM (inactive). For the same molecule, the GI50 with K562 is 4.38 µM (inactive); in the assay with LOX IMVI it was 3.33 µM (inactive); in the assay with Malme-3M it was 5.81 µM (inactive); in the assay on NCI-H460 it was 3.87 µM (inactive); in the assay on OVCAR-8, 3.24 µM (inactive); in the assay on PC-3, 10.2 µM (inactive). Also, the GI50 in the assay on RPMI-8226 was 2.57 µM (inactive); in the assay with SK-MEL-2, 12.1 µM (inactive); in the assay with SK-OV-3, 20 µM (inactive); in the assay on SNB-19, 5.89 µM (inactive); in the assay with SW-620, 3.61 µM (inactive); in the assay with T47D it was 7.36 µM (inactive). The GI50 with U-251 was 2.17 µM (inactive).
Turning to `CC(=O)OC1c2ccccc2CC2(OC(C)=O)c3ccccc3C12` (configuration not stated), the GI50 in the assay with A549 is > 100 µM (inactive); with HOP-62, > 100 µM (inactive); with HOP-92, 91 µM (inactive); in the assay on HT-29, > 100 µM (inactive); in the assay on IGROV-1, > 100 µM (inactive); in the assay on K562, > 100 µM (inactive). Besides, the GI50 in the assay on LOX IMVI, with MDA-N, in the assay on Malme-3M, with NCI-H460, in the assay on OVCAR-8 and in the assay with PC-3 was > 100 µM (inactive) in each case. In addition, the GI50 in the assay on RPMI-8226, in the assay on SK-MEL-2, with SK-OV-3, in the assay on SNB-19, with SW-620 and in the assay on T47D was > 100 µM (inactive) each time. The GI50 in the assay with U-251 is > 100 µM (inactive).
For `C/C(=N\NS(=O)(=O)c1ccc(C)cc1)c1ccccn1`, the GI50 was 53.3 µM (inactive) in the assay on A549; > 100 µM (inactive) in the assay with BT-549; 62.2 µM (inactive) in the assay with HOP-62; > 100 µM (inactive) in the assay on HOP-92; 44.5 µM (inactive) in the assay on HT-29; 47.2 µM (inactive) in the assay on IGROV-1. Further, the GI50 in the assay on K562 is 83.8 µM (inactive); in the assay on LOX IMVI it was 55.6 µM (inactive); with Malme-3M, 60.3 µM (inactive); with NCI-H460, 49.7 µM (inactive); in the assay with OVCAR-8 it was 50.8 µM (inactive); with PC-3 it was 84.3 µM (inactive). Besides, the GI50 in the assay with RPMI-8226 was > 100 µM (inactive); with SK-MEL-2, > 100 µM (inactive); in the assay with SK-OV-3, 55.3 µM (inactive); in the assay on SNB-19, 74.8 µM (inactive); in the assay on SW-620, > 100 µM (inactive); in the assay with T47D it was 76.9 µM (inactive). The GI50 in the assay with U-251 was 88.5 µM (inactive).
For the molecule `c1ccc(Sc2nc(Sc3ccccc3)nc(Sc3ccccc3)n2)cc1`, the GI50 in the assay with A549 is 28.5 µM (inactive); in the assay on BT-549, > 100 µM (inactive); with HOP-62, 35.7 µM (inactive); in the assay with HT-29, 38.9 µM (inactive); in the assay with K562, > 100 µM (inactive); with LOX IMVI, > 100 µM (inactive). Further, the GI50 in the assay with Malme-3M was > 100 µM (inactive); in the assay on NCI-H460, 47.6 µM (inactive); with PC-3, 7.11 µM (inactive); in the assay with RPMI-8226 it was 15.4 µM (inactive); in the assay with SK-MEL-2, 37.2 µM (inactive); with SK-OV-3, > 100 µM (inactive). The GI50 is 31.8 µM (inactive) with SNB-19, 22.3 µM (inactive) in the assay on T47D and 19.4 µM (inactive) in the assay on U-251.
For the molecule `COc1ccc(-c2oc3cc(O)cc(O)c3c(=O)c2OC)cc1` [ERMANIN], the GI50 in the assay with A549 was 34.9 µM (inactive); with HOP-62 it was 26.6 µM (inactive); in the assay on HOP-92, 3.23 µM (inactive); with HT-29, 24.7 µM (inactive); in the assay with IGROV-1 it was 28.3 µM (inactive); in the assay with K562, 9.79 µM (inactive). Besides, the GI50 in the assay with LOX IMVI was 38.2 µM (inactive); in the assay on MDA-N it was 25.4 µM (inactive); with Malme-3M, 38.8 µM (inactive); in the assay on NCI-H460, 25.4 µM (inactive); in the assay with OVCAR-8, 44.1 µM (inactive); with PC-3, 31 µM (inactive). Further, the GI50 in the assay on RPMI-8226 is 15 µM (inactive); in the assay with SK-OV-3 it was 4.66 µM (inactive); in the assay with SNB-19 it was 32.7 µM (inactive); in the assay with SW-620, 31.2 µM (inactive); in the assay with T47D, 31 µM (inactive); in the assay on U-251, 18 µM (inactive).
